Experimental data taken from ChEMBL document CHEMBL5346901, “Discovery of potent Plasmodium falciparum protein kinase 6 (PfPK6) inhibitors with a type II inhibitor pharmacophore” (Eur J Med Chem, 2023).
Values after ≈ are worked out from the molar mass of the structure shown. Active and inactive are the calls of the source. The calls are words filed in the database; no cut-off is given here.

Legend:
[1] = Microsomal stability in mouse liver microsomes assessed as parent compound remaining at 5 uM measured after 30 mins in presence of NADPH; type: ADME, Microsome; conditions: 0.5 h
[2] = Apparent permeability of compound by PAMPA assay; type: ADME
Plasmodium falciparum [3] = assay: Inhibition of plasmodium falciparum PKB assessed as remaining activity at 1 uM incubated for 2 hrs by luciferin-based luminescence assay relative to control
HepG2 [4] = assay: Cytotoxicity against human HepG2 cells assessed as reduction in cell viability by CellTiter-Glo assay; type: toxicity, cell-based
Plasmodium falciparum [5] = assay: Inhibition of plasmodium falciparum ARK1 assessed as remaining activity at 1 uM incubated for 2 hrs by luciferin-based luminescence assay relative to control
Plasmodium falciparum [6] = assay: Inhibition of plasmodium falciparum ARK3 assessed as remaining activity at 1 uM incubated for 2 hrs by luciferin-based luminescence assay relative to control
Plasmodium falciparum [7] = assay: Inhibition of plasmodium falciparum PK9 assessed as remaining activity at 1 uM incubated for 2 hrs by luciferin-based luminescence assay relative to control
Plasmodium falciparum [8] = assay: Inhibition of plasmodium falciparum PK5 assessed as remaining activity at 1 uM incubated for 2 hrs by luciferin-based luminescence assay relative to control
Plasmodium falciparum [9] = assay: Antimalarial activity against blood stage Plasmodium falciparum 3D7 assessed as reduction in parasite growth incubated for 72 hrs by SYBR Green dye based fluorescence assay; type: functional, organism-based; conditions: for EC50: 3D7, 72 h
Plasmodium falciparum [10] = assay: Inhibition of plasmodium falciparum NEK3 assessed as remaining activity at 1 uM incubated for 2 hrs by luciferin-based luminescence assay relative to control
[11] = Kinetic solubility of the compound at pH 7.4; type: physicochemical; conditions: buffer, read-out: Kinetic_solubility
[12] = Microsomal stability in human liver microsomes assessed as parent compound remaining at 5 uM measured after 30 mins in presence of NADPH; type: ADME, Microsome; conditions: 0.5 h
Plasmodium falciparum [13] = assay: Inhibition of plasmodium falciparum CDPK5 assessed as remaining activity at 1 uM incubated for 2 hrs by luciferin-based luminescence assay relative to control
Plasmodium berghei = assay: Antimalarial activity against liver stage Plasmodium berghei ANKA sporozoites in human HepG2 cells assessed as reduction in parasite load measured after 44 hrs by […] reagent based […] analysis; type: functional, organism-based
HepG2 [14] = assay: Cytotoxicity against human HepG2 cells infected with liver stage Plasmodium berghei ANKA sporozoites assessed as reduction in cell viability measured after 44 hrs by […] assay; type: toxicity, cell-based; conditions: hepg2, 44 h
[15] = biological target: T1, Glycogen synthase kinase 3 (Plasmodium falciparum (isolate 3D7)) (UniProt O77344); assay: Inhibition of plasmodium falciparum GSK3 assessed as remaining activity at 1 uM incubated for 2 hrs by luciferin-based luminescence assay relative to control
T1 sequence (whole entry): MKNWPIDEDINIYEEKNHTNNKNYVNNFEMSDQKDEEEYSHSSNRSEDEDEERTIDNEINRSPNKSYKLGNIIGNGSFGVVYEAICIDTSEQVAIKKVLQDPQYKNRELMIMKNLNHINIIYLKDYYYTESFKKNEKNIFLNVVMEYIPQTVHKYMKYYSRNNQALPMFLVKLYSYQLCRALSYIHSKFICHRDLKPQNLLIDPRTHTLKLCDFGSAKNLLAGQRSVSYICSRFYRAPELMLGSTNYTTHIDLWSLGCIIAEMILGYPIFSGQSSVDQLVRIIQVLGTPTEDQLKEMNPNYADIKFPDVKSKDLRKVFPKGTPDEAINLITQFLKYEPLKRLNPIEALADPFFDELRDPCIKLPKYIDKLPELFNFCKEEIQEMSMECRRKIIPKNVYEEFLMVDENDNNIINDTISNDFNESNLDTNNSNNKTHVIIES

Plasmodium falciparum [16] = assay: Inhibition of plasmodium falciparum NEK1 assessed as remaining activity at 1 uM incubated for 2 hrs by luciferin-based luminescence assay relative to control
Plasmodium falciparum [17] = assay: Inhibition of plasmodium falciparum CDPK2 assessed as remaining activity at 1 uM incubated for 2 hrs by luciferin-based luminescence assay relative to control
Plasmodium falciparum [18] = assay: Inhibition of plasmodium falciparum PK5 assessed as remaining activity at 1 uM by Kinomescan method relative to control
[19] = biological target: Calcium-dependent protein kinase 1 (Plasmodium falciparum) (UniProt P62344); assay: Inhibition of plasmodium falciparum CDPK1 assessed as remaining activity at 1 uM by Kinomescan method relative to control; conditions: time 2.0 hrs
[20] = biological target: T2, Cdk-related protein kinase 6 (Plasmodium falciparum) (UniProt O77239); assay: Inhibition of plasmodium falciparum PK6 assessed as remaining activity at 1 uM incubated for 2 hrs by luciferin-based luminescence assay relative to control
T2 sequence (whole entry): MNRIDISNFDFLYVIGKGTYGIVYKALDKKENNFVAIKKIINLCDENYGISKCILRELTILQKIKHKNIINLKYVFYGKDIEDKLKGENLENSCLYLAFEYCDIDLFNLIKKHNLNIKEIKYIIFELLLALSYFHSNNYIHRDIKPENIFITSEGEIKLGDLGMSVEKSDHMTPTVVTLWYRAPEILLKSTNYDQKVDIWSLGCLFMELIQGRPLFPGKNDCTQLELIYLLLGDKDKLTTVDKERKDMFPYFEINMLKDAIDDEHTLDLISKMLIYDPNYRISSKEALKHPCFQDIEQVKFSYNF

[21] = biological target: T3, Cdk-related protein kinase 6 (Plasmodium falciparum, UniProt O77239)
T3 sequence (O77239 whole entry): T2 sequence (whole entry)
Description: Inhibition of N-terminal 6His-tagged plasmodium falciparum PK6 expressed in Escherichia coli BL21(DE3) incubated for 15 mins in presence of [gamma-32p]ATP and ATP by SDS-PAGE based autoradiography analysis

Chain of Calcium-dependent protein kinase 1 (Plasmodium falciparum) (P62344 2-524 limits assumed): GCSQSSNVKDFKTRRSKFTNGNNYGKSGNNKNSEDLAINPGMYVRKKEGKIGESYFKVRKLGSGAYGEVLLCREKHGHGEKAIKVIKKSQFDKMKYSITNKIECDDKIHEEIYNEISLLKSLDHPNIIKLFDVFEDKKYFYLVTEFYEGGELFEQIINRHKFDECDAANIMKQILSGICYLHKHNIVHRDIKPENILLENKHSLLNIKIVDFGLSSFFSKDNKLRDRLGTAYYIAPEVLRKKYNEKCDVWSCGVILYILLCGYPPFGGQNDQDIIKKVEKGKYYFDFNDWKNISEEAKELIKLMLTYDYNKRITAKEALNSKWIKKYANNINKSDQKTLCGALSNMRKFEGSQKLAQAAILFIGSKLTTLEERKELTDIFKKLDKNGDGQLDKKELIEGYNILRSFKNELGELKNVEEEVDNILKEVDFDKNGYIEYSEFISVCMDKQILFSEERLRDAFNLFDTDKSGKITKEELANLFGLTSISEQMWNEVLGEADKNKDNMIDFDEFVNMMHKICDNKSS

COc1cc2nccc(Oc3ccc(NC(=O)Nc4ccc(OC5CCN(C)CC5)c(C(F)(F)F)c4)c(F)c3)c2cc1OC
Stability [1]: 69.7%
Papp [2]: < 0.513 10^-6 cm/s
Activity (Plasmodium falciparum [3]): 20%
CC50 (HepG2 [4]): 1000 nM
Activity (Plasmodium falciparum [5]): 94%
Activity (Plasmodium falciparum [6]): 97%
Activity (Plasmodium falciparum [7]): 79%
Activity (Plasmodium falciparum [8]): 94%
EC50 (Plasmodium falciparum [9]): 40 nM
Activity (Plasmodium falciparum [10]): 6%
solubility kinetic [11]: 1.5 µM (≈ 0.922 µg/mL)
Stability [12]: 88.6%
Activity (Plasmodium falciparum [13]): 25%
Activity (Plasmodium berghei): inactive
CC50 (HepG2 [14]): 410 nM
Activity [15]: 30%
Activity (Plasmodium falciparum [16]): 100%
Activity (Plasmodium falciparum [17]): 78%

COc1cc2nccc(Oc3ccc(NC(=O)Nc4ccc(CC5CCNCC5)cc4)c(F)c3)c2cc1OC
Stability [1]: 85.8%
Papp [2]: < 0.669 10^-6 cm/s
Activity (Plasmodium falciparum [3]): 30%
CC50 (HepG2 [4]): 4390 nM
Activity (Plasmodium falciparum [5]): 97%
Activity (Plasmodium falciparum [7]): 99%
Activity (Plasmodium falciparum [8]): 97%
EC50 (Plasmodium falciparum [9]): 160 nM
Activity (Plasmodium falciparum [18]): 84%
Activity (Plasmodium falciparum [10]): 82%
solubility kinetic [11]: 10.9 µM (≈ 5.78 µg/mL)
Activity (Plasmodium falciparum [13]): 91%
Activity (Plasmodium berghei): inactive
Activity [19]: 51%
CC50 (HepG2 [14]): 3290 nM
Activity [15]: 97%
Activity (Plasmodium falciparum [16]): 100%
Activity (Plasmodium falciparum [17]): 88%

O=C(Nc1ccc(F)cc1F)Nc1ccc(Oc2ccncc2)cc1F
Activity [20]: 50%

O=C(Nc1ccc(F)cc1F)Nc1ccc(Oc2ccnc3[nH]ccc23)cc1F
Activity [20]: 14%

COc1cc2nccc(Oc3ccc(N)cc3)c2cc1OC
Activity [20]: 95%

COc1ccc(NC(=O)Nc2ccc(F)cc2F)c(F)c1
Activity [20]: 100%

COc1cc2ncnc(Oc3ccc(NC(=O)Nc4ccc(F)cc4F)c(F)c3)c2cc1OC
Activity [20]: 6%

COc1cc2nccc(Oc3ccc(NC(=O)Nc4ccc(CN5CCN(C)CC5)c(C(F)(F)F)c4)c(F)c3)c2cc1OC
Papp [2]: 2.57 10^-6 cm/s
CC50 (HepG2 [4]): 1000 nM
EC50 (Plasmodium falciparum [9]): 110 nM
solubility kinetic [11]: 2.1 µM (≈ 1.29 µg/mL)
Activity [19]: 1.6%

O=C(Nc1ccc(F)cc1F)Nc1ccc(Oc2ccnc3cc(Cl)ccc23)cc1F
Activity [20]: 38%

O=C(Nc1ccc(F)cc1F)Nc1ccc(Oc2ncnc3[nH]ccc23)cc1F
Activity [20]: 54%

O=C(Nc1ccc(F)cc1F)Nc1ccc(Oc2ccnc3cc4c(cc23)OCCO4)cc1F
Activity [20]: 30%

COCCOc1cc2nccc(Oc3ccc(NC(=O)Nc4ccc(F)cc4F)c(F)c3)c2cc1OCCOC
Activity [20]: 2%

COc1cc2nccc(Oc3ccc(NC(C)=O)c(F)c3)c2cc1OC
Activity [20]: 26%

Cn1cnc2c(NCc3ccccc3)nc(NCCO)nc21 [OLOMOUCINE]
IC50 [21]: 180000 nM

O=C(Nc1ccc(F)cc1F)Nc1ccc(Oc2ncnc3sccc23)cc1F
Activity [20]: 80%

O=C(Nc1ccc(O)cc1F)Nc1ccc(F)cc1F
Activity [20]: 100%

O=C(Nc1ccc(F)cc1F)Nc1ccc(Oc2ccnc(Cl)n2)cc1F
Activity [20]: 98%

COc1cc2nccc(Oc3cccc(F)c3)c2cc1OC
Activity [20]: 84%

COc1cc2nccc(Oc3ccc(NC(=O)Nc4ccc(CC5CCNCC5)c(C(F)(F)F)c4)c(F)c3)c2cc1OC
Papp [2]: 0.734 10^-6 cm/s
Activity (Plasmodium falciparum [3]): 21%
CC50 (HepG2 [4]): 1290 nM
Activity (Plasmodium falciparum [5]): 100%
Activity (Plasmodium falciparum [6]): 87%
Activity (Plasmodium falciparum [7]): 89%
Activity (Plasmodium falciparum [8]): 94%
EC50 (Plasmodium falciparum [9]): 39 nM
Activity (Plasmodium falciparum [18]): 80%
Activity (Plasmodium falciparum [10]): 7%
solubility kinetic [11]: 2.1 µM (≈ 1.26 µg/mL)
Stability [12]: 98.1%
Activity (Plasmodium falciparum [13]): 27%
EC50 (Plasmodium berghei; HepG2, 44 h): 220 nM
Activity [19]: 1.1%
CC50 (HepG2 [14]): 1290 nM
Activity [15]: 34%
Activity (Plasmodium falciparum [16]): 100%
Activity (Plasmodium falciparum [17]): 64%

COc1cc2nccc(Oc3ccc(NC(=O)Nc4ccc(F)cc4F)c(F)c3)c2cc1OC
Activity (Plasmodium falciparum [9]): inactive
solubility kinetic [11]: 0.7 µM (≈ 0.329 µg/mL)

COc1cc2nccc(Oc3ccc(NC(=O)Nc4ccccc4)c(F)c3)c2cc1OC
Activity [20]: 1%

O=C(Nc1ccc(F)cc1F)Nc1ccc(Oc2ncnc3ccccc23)cc1F
Activity [20]: 83%

COc1cc2nccc(Oc3ccc(NC(=O)Nc4ccc(C=C5CCNCC5)cc4)c(F)c3)c2cc1OC
Stability [1]: 86.7%
Papp [2]: < 0.709 10^-6 cm/s
Activity (Plasmodium falciparum [3]): 38%
CC50 (HepG2 [4]): 2570 nM
Activity (Plasmodium falciparum [5]): 98%
Activity (Plasmodium falciparum [8]): 100%
EC50 (Plasmodium falciparum [9]): 140 nM
Activity (Plasmodium falciparum [10]): 84%
solubility kinetic [11]: 7.4 µM (≈ 3.91 µg/mL)
Stability [12]: 88.6%
Activity (Plasmodium falciparum [13]): 98%
Activity (Plasmodium berghei): inactive
CC50 (HepG2 [14]): 6620 nM
Activity [15]: 100%
Activity (Plasmodium falciparum [16]): 100%
Activity (Plasmodium falciparum [17]): 96%
